{
  "source": "the supplement of paper PMC10307832",
  "experiment_in_all_cases": "relative viability (nuclei count vs DMSO), 5 days (fraction); higher = more cells survive",
  "key": {"NCI-H1703": {"tested_on": "NCI-H1703", "summary_of_the_method": "(§1)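 Lung cancer cell lines were pin-tool dosed in 1536-well plates on the day after seeding, with either a lone drug or a fixed anchor-drug dose plus five library-drug doses (not always all listed) in √10 steps. Nuclei were counted on 4× images after 5 days. Relative viability is the ratio of treated-well to vehicle-well nuclei counts, with each value a median of duplicate plates.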"}, "IA-LM": {"tested_on": "IA-LM", "summary_of_the_method": "as §1"}, "NCI-H520": {"tested_on": "NCI-H520", "summary_of_the_method": "as §1"}, "COR-L 105": {"tested_on": "COR-L 105", "summary_of_the_method": "as §1"}, "A549": {"tested_on": "A549", "summary_of_the_method": "as §1"}, "NCI-H1299": {"tested_on": "NCI-H1299", "summary_of_the_method": "as §1"}, "Calu-6": {"tested_on": "Calu-6", "summary_of_the_method": "as §1"}, "LK-2": {"tested_on": "LK-2", "summary_of_the_method": "as §1"}, "EBC-1": {"tested_on": "EBC-1", "summary_of_the_method": "as §1"}, "NCI-H1355": {"tested_on": "NCI-H1355", "summary_of_the_method": "as §1"}, "LCLC-103H": {"tested_on": "LCLC-103H", "summary_of_the_method": "as §1"}},
  "data": [
    {"smiles": "CCN(CC)CCCCNc1ncc2cc(-c3cc(OC)cc(OC)c3)c(NC(=O)NC(C)(C)C)nc2n1", "note": "+ CC1(C)CCC(c2ccc(Cl)cc2)=C(CN2CCN(c3ccc(C(=O)NS(=O)(=O)c4ccc(N[C@H](CCN5CCOCC5)CSc5ccccc5)c(S(=O)(=O)C(F)(F)F)c4)cc3)CC2)C1 [Navitoclax] (partner 0.5 µM)", "values": [
      {"measurement": "relative viability", "setting": "NCI-H1703; first compound 0.01 µM", "result": 1.07},
      {"measurement": "relative viability", "setting": "NCI-H1703; first compound 0.1 µM", "result": 1.04},
      {"measurement": "relative viability", "setting": "NCI-H1703; first compound 0.3162 µM", "result": 1.32},
      {"measurement": "relative viability", "setting": "NCI-H1703; first compound 1 µM", "result": 0.925},
      {"measurement": "relative viability", "setting": "IA-LM; first compound 0.01 µM", "result": 0.746},
      {"measurement": "relative viability", "setting": "IA-LM; first compound 0.03162 µM", "result": 0.882},
      {"measurement": "relative viability", "setting": "IA-LM; first compound 0.1 µM", "result": 0.969},
      {"measurement": "relative viability", "setting": "IA-LM; first compound 0.3162 µM", "result": 0.73},
      {"measurement": "relative viability", "setting": "IA-LM; first compound 1 µM", "result": 0.866},
      {"measurement": "relative viability", "setting": "NCI-H520; first compound 0.01 µM", "result": 1.08},
      {"measurement": "relative viability", "setting": "NCI-H520; first compound 0.03162 µM", "result": 1.08},
      {"measurement": "relative viability", "setting": "NCI-H520; first compound 0.1 µM", "result": 1.31},
      {"measurement": "relative viability", "setting": "NCI-H520; first compound 0.3162 µM", "result": 1.09},
      {"measurement": "relative viability", "setting": "NCI-H520; first compound 1 µM", "result": 0.419},
      {"measurement": "relative viability", "setting": "COR-L 105; first compound 0.01 µM", "result": 0.811},
      {"measurement": "relative viability", "setting": "COR-L 105; first compound 0.03162 µM", "result": 0.81},
      {"measurement": "relative viability", "setting": "COR-L 105; first compound 0.1 µM", "result": 0.83},
      {"measurement": "relative viability", "setting": "COR-L 105; first compound 0.3162 µM", "result": 0.872},
      {"measurement": "relative viability", "setting": "COR-L 105; first compound 1 µM", "result": 0.883},
      {"measurement": "relative viability", "setting": "A549; first compound 0.01 µM", "result": 1.16},
      {"measurement": "relative viability", "setting": "A549; first compound 0.03162 µM", "result": 1.24},
      {"measurement": "relative viability", "setting": "A549; first compound 0.1 µM", "result": 1.53},
      {"measurement": "relative viability", "setting": "A549; first compound 0.3162 µM", "result": 1.23},
      {"measurement": "relative viability", "setting": "A549; first compound 1 µM", "result": 1.07},
      {"measurement": "relative viability", "setting": "NCI-H1299; first compound 0.01 µM", "result": 1.08},
      {"measurement": "relative viability", "setting": "NCI-H1299; first compound 0.03162 µM", "result": 1.01},
      {"measurement": "relative viability", "setting": "NCI-H1299; first compound 0.1 µM", "result": 1.08},
      {"measurement": "relative viability", "setting": "NCI-H1299; first compound 0.3162 µM", "result": 1.09},
      {"measurement": "relative viability", "setting": "NCI-H1299; first compound 1 µM", "result": 1.01},
      {"measurement": "relative viability", "setting": "Calu-6; first compound 0.01 µM", "result": 0.729},
      {"measurement": "relative viability", "setting": "Calu-6; first compound 0.03162 µM", "result": 0.946},
      {"measurement": "relative viability", "setting": "Calu-6; first compound 0.1 µM", "result": 1.03},
      {"measurement": "relative viability", "setting": "Calu-6; first compound 0.3162 µM", "result": 1.01},
      {"measurement": "relative viability", "setting": "Calu-6; first compound 1 µM", "result": 0.748},
      {"measurement": "relative viability", "setting": "LK-2; first compound 0.01 µM", "result": 0.918},
      {"measurement": "relative viability", "setting": "LK-2; first compound 0.03162 µM", "result": 0.841},
      {"measurement": "relative viability", "setting": "LK-2; first compound 0.1 µM", "result": 0.8},
      {"measurement": "relative viability", "setting": "LK-2; first compound 0.3162 µM", "result": 0.732},
      {"measurement": "relative viability", "setting": "LK-2; first compound 1 µM", "result": 0.36},
      {"measurement": "relative viability", "setting": "EBC-1; first compound 0.01 µM", "result": 0.339},
      {"measurement": "relative viability", "setting": "EBC-1; first compound 0.03162 µM", "result": 0.469},
      {"measurement": "relative viability", "setting": "EBC-1; first compound 0.1 µM", "result": 0.442},
      {"measurement": "relative viability", "setting": "EBC-1; first compound 0.3162 µM", "result": 0.357},
      {"measurement": "relative viability", "setting": "EBC-1; first compound 1 µM", "result": 0.37},
      {"measurement": "relative viability", "setting": "NCI-H1355; first compound 0.01 µM", "result": 0.906},
      {"measurement": "relative viability", "setting": "NCI-H1355; first compound 0.03162 µM", "result": 1.09},
      {"measurement": "relative viability", "setting": "NCI-H1355; first compound 0.1 µM", "result": 0.991},
      {"measurement": "relative viability", "setting": "NCI-H1355; first compound 0.3162 µM", "result": 1.02},
      {"measurement": "relative viability", "setting": "NCI-H1355; first compound 1 µM", "result": 0.938}
    ]},
    {"smiles": "O=c1cc(-c2cccc3c2Sc2ccccc2S3)oc(N2CCOCC2)c1", "note": "+ CC(C)C[C@H](NC(=O)[C@H](Cc1ccccc1)NC(=O)c1cnccn1)B(O)O [Bortezomib] (partner 0.002 µM)", "values": [
      {"measurement": "relative viability", "setting": "LCLC-103H; first compound 0.08 µM", "result": 1.16},
      {"measurement": "relative viability", "setting": "LCLC-103H; first compound 0.253 µM", "result": 1.18},
      {"measurement": "relative viability", "setting": "LCLC-103H; first compound 0.8 µM", "result": 1.08},
      {"measurement": "relative viability", "setting": "LCLC-103H; first compound 2.53 µM", "result": 1.14},
      {"measurement": "relative viability", "setting": "LCLC-103H; first compound 8 µM", "result": 1.37},
      {"measurement": "relative viability", "setting": "NCI-H1703; first compound 0.253 µM", "result": 0.356},
      {"measurement": "relative viability", "setting": "NCI-H1703; first compound 0.8 µM", "result": 0.384},
      {"measurement": "relative viability", "setting": "NCI-H1703; first compound 2.53 µM", "result": 0.346},
      {"measurement": "relative viability", "setting": "NCI-H1703; first compound 8 µM", "result": 0.285},
      {"measurement": "relative viability", "setting": "IA-LM; first compound 0.08 µM", "result": 0.833},
      {"measurement": "relative viability", "setting": "IA-LM; first compound 0.253 µM", "result": 0.946},
      {"measurement": "relative viability", "setting": "IA-LM; first compound 0.8 µM", "result": 0.799},
      {"measurement": "relative viability", "setting": "IA-LM; first compound 2.53 µM", "result": 0.949},
      {"measurement": "relative viability", "setting": "IA-LM; first compound 8 µM", "result": 0.905},
      {"measurement": "relative viability", "setting": "NCI-H520; first compound 0.08 µM", "result": 0.679},
      {"measurement": "relative viability", "setting": "NCI-H520; first compound 0.253 µM", "result": 0.619},
      {"measurement": "relative viability", "setting": "NCI-H520; first compound 0.8 µM", "result": 0.732},
      {"measurement": "relative viability", "setting": "NCI-H520; first compound 2.53 µM", "result": 0.507},
      {"measurement": "relative viability", "setting": "NCI-H520; first compound 8 µM", "result": 0.604},
      {"measurement": "relative viability", "setting": "COR-L 105; first compound 0.08 µM", "result": 0.669},
      {"measurement": "relative viability", "setting": "COR-L 105; first compound 0.253 µM", "result": 0.715},
      {"measurement": "relative viability", "setting": "COR-L 105; first compound 0.8 µM", "result": 0.741},
      {"measurement": "relative viability", "setting": "COR-L 105; first compound 2.53 µM", "result": 0.795},
      {"measurement": "relative viability", "setting": "COR-L 105; first compound 8 µM", "result": 0.733},
      {"measurement": "relative viability", "setting": "NCI-H1299; first compound 0.08 µM", "result": 1.02},
      {"measurement": "relative viability", "setting": "NCI-H1299; first compound 0.253 µM", "result": 1.02},
      {"measurement": "relative viability", "setting": "NCI-H1299; first compound 0.8 µM", "result": 1.05},
      {"measurement": "relative viability", "setting": "NCI-H1299; first compound 2.53 µM", "result": 0.997},
      {"measurement": "relative viability", "setting": "NCI-H1299; first compound 8 µM", "result": 1.01},
      {"measurement": "relative viability", "setting": "Calu-6; first compound 0.08 µM", "result": 0.91},
      {"measurement": "relative viability", "setting": "Calu-6; first compound 0.253 µM", "result": 1.02},
      {"measurement": "relative viability", "setting": "Calu-6; first compound 0.8 µM", "result": 1.01},
      {"measurement": "relative viability", "setting": "Calu-6; first compound 2.53 µM", "result": 0.974},
      {"measurement": "relative viability", "setting": "Calu-6; first compound 8 µM", "result": 0.976},
      {"measurement": "relative viability", "setting": "EBC-1; first compound 0.08 µM", "result": 0.602},
      {"measurement": "relative viability", "setting": "EBC-1; first compound 0.253 µM", "result": 0.535},
      {"measurement": "relative viability", "setting": "EBC-1; first compound 0.8 µM", "result": 0.546},
      {"measurement": "relative viability", "setting": "EBC-1; first compound 2.53 µM", "result": 0.424},
      {"measurement": "relative viability", "setting": "EBC-1; first compound 8 µM", "result": 0.448},
      {"measurement": "relative viability", "setting": "NCI-H1355; first compound 0.08 µM", "result": 1.25},
      {"measurement": "relative viability", "setting": "NCI-H1355; first compound 0.253 µM", "result": 1.35},
      {"measurement": "relative viability", "setting": "NCI-H1355; first compound 0.8 µM", "result": 1.22},
      {"measurement": "relative viability", "setting": "NCI-H1355; first compound 2.53 µM", "result": 1.16},
      {"measurement": "relative viability", "setting": "NCI-H1355; first compound 8 µM", "result": 1.3}
    ]}
  ]
}
